From BindingDB's records for doi:10.1002/cbic.200800704 (Antibiotics Laboratory, 2009)

These compounds were tested against Carbonic anhydrase 2 (Homo sapiens, UniProt P00918) (assay: Inhibition Assay). Details: pH 8.4.
Method: Inhibitory activity of the compounds for CAII was measured and IC50 values were calculated from independent triplicated experiments. Kd values were obtained by ITC analysis.
Compound `NS(=O)(=O)c1ccc(N2CCN(CCO)CC2)cc1` [Piperazine moiety, 5] has an IC50 of 137 nM and a Kd of 208 nM. Compound `NS(=O)(=O)c1ccc(N2CCNCC2)cc1` [Piperazine moiety, 4] has an IC50 of 299 nM and a Kd of 426 nM. In the case of `NS(=O)(=O)c1ccc(N2CCN(Cc3ccncc3)CC2)cc1` [Piperazine moiety, 3], the IC50 is reported as 48 nM and the Kd is reported as 29 nM. `NS(=O)(=O)c1ccc(F)cc1` [4-Fuloro sulfonamide, C] gave an IC50 of 203 nM and a Kd of 435 nM. Compound `NS(=O)(=O)c1ccc(N2CCN(C(=O)c3ccncc3)CC2)cc1` [Piperazine moiety, 6] has an IC50 of 72 nM and a Kd of 100 nM.
